Laboratory results reported in PubChem BioAssay (NCI).
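Results reflect a 48-hour exposure of cells in 96-well plates to compound at five concentrations. TGI: concentration producing complete growth inhibition.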

Tests used:
Test in all cases: DTP human tumour cell line panel, 48 h
COLO 205 colon = tested on: COLO 205 colon
DU-145 prostate = tested on: DU-145 prostate
EKVX NSCLC = tested on: EKVX NSCLC
HOP-92 NSCLC = tested on: HOP-92 NSCLC
HS 578T breast = tested on: HS 578T breast
NCI-H522 lung = tested on: NCI-H522 lung
OVCAR-3 ovarian = tested on: OVCAR-3 ovarian
PC-3 prostate = tested on: PC-3 prostate
SK-MEL-28 melanoma = tested on: SK-MEL-28 melanoma
SK-MEL-5 melanoma = tested on: SK-MEL-5 melanoma
SNB-75 CNS = tested on: SNB-75 CNS
UO-31 renal = tested on: UO-31 renal
SK-OV-3 ovarian = tested on: SK-OV-3 ovarian

Compound | TGI (COLO 205 colon) [µM] | TGI (DU-145 prostate) [µM] | TGI (EKVX NSCLC) [µM] | TGI (HOP-92 NSCLC) [µM] | TGI (HS 578T breast) [µM] | TGI (NCI-H522 lung) [µM] | TGI (OVCAR-3 ovarian) [µM] | TGI (PC-3 prostate) [µM] | TGI (SK-MEL-28 melanoma) [µM] | TGI (SK-MEL-5 melanoma) [µM] | TGI (SNB-75 CNS) [µM] | TGI (UO-31 renal) [µM] | TGI (SK-OV-3 ovarian) [µM]
N#Cc1ccc(OCc2nc3cc(C(F)(F)F)ccc3nc2-c2ccccc2)cc1 | > 100 | > 100 | > 100 | > 100 | > 100 | > 100 | > 100 | > 100 | > 100 | > 100 | > 100 | > 100 | 
CC12Cc3cc4c(cc3C1(c1ccc([N+](=O)[O-])cc1)OCCO2)OCO4 (stereo not given) | > 100 | > 100 | > 100 |  | 86.4 | > 100 | > 100 | > 100 | > 100 | > 100 |  | > 100 | 47.6
COc1cc(COC(=O)N2CCC2C(=O)O)c([N+](=O)[O-])cc1OC (stereo not given) | > 100 | > 100 | > 100 | > 100 | > 100 |  | > 100 | > 100 | > 100 | > 100 | > 100 | > 100 | > 100
C=CC[C@H]1[C@H](O[Si](C)(C)C(C)(C)C)C=CC(=O)[C@@H]1CC(=O)N(Cc1ccccc1)Cc1ccccc1 | 25.6 | > 100 | > 100 | 8.51 | > 100 | > 100 | 67 | > 100 | > 100 | 20.7 |  | 41.2 | > 100
COc1ccccc1N1CCN(Cn2c(=O)oc3cccnc32)CC1 |  | > 100 | > 100 | > 100 | > 100 | > 100 | > 100 | > 100 | > 100 | > 100 | > 100 | > 100 | > 100
CC[C@H]1OC([C@H](O)C/C=C\C#C[Si](C)(C)C)C/C=C\C[C@H]1O[Si](C)(C)C(C)(C)C (stereo not given in full) | > 100 | > 100 | > 100 |  | > 100 | > 100 | > 100 | > 100 | > 100 | > 100 | > 100 | > 100 | > 100
COC(=O)c1c(C)cccc1/C=C1\Cc2cc(C)cc(C)c2C1=O |  | > 100 | > 100 | 39.4 | 69.7 | > 100 | > 100 | > 100 | > 100 | > 100 | 38.4 | > 100 | 
O=c1[nH]nc(Cc2ccccc2)n1Nc1ccccc1 | > 100 | > 100 | > 100 |  | > 100 | > 100 | > 100 | > 100 | > 100 | > 100 | > 100 | > 100 | 
Cc1nnc2n1-c1ccccc1C(=S)N1CSCC21 (stereo not given) | > 100 | > 100 | > 100 |  | > 100 | > 100 | > 100 | > 100 | > 100 | > 100 | > 100 | > 100 | > 100
